Results: article PMC3828267 (PLoS ONE, 2013)
Several values for one entry are separate records, joined by “and”; a condition that tells them apart may be missing. Equal values may be shown once. Read-outs that look alike come from different tables or passages of the source.

Key:
α3β4 AChRs [1] = molecular target: T1, α3β4 AChRs (Homo sapiens, UniProt P30926+P32297); assay: Acute activation, FLEXStation membrane potential dye, α3β4 cell line; format: cell-based
T1 construct: expressed in transfected cells
T1 sequence (P32297 32-505): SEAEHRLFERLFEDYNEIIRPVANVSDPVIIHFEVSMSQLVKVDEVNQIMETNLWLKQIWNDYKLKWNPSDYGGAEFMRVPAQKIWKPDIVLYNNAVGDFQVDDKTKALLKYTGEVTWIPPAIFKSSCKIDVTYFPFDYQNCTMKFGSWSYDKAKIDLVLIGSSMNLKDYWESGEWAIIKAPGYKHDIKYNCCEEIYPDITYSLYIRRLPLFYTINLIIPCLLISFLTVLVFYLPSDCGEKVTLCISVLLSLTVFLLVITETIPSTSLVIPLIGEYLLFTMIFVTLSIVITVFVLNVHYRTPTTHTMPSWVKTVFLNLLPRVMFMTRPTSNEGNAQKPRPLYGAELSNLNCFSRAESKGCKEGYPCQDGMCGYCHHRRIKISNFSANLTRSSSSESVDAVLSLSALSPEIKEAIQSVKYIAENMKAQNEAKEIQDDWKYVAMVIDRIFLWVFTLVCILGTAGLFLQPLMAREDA
T1 sequence (P30926 22-498): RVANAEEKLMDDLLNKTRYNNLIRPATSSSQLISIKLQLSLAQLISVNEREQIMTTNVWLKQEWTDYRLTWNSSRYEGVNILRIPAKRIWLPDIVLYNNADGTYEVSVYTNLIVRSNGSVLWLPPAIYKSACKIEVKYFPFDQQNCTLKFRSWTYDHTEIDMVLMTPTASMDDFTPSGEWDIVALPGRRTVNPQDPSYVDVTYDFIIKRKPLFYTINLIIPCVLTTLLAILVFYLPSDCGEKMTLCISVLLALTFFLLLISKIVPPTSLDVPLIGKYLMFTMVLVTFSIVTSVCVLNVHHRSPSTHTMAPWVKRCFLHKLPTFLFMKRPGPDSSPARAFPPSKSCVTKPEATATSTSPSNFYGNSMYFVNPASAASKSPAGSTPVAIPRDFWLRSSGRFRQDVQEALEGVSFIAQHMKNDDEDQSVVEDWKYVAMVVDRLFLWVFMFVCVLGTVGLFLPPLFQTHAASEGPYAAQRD
Protocol: (§1) The parental cell line used for transfections was tsA201, derived from the human embryonic kidney cell line (HEK) 293 [33]. […] The cell line permanently expressing α3β4 AChRs has been described, [34]. A stable cell line expressing functional α7 AChRs was prepared by initially transfecting the tsA201 cell line with cDNA for α7 and subsequently transfecting with cDNA for the AChR-selective chaperone, human RIC-3.
(§2) Responses to nicotinic agonists were determined using a FLEXStation microplate fluorometer (Molecular Devices, Sunnyvale, CA) as described. For cell lines expressing α4β2 and α3β4 AChRs, the cells were plated at 10^5 cells/ml (100 µl/well) in black-walled clear-bottom 96 well plates (Costar, Fisher Scientific, Pittsbugh, PA), and incubated for 48 hours prior to assaying responses to various nicotinic agonists. The α7/RIC-3 expressing cells were plated at 5×10^5/ml in black-walled clear-bottom 96 well BioCoat plates (BD Biosciences, Franklin Lakes, NJ) in the continued presence of VPA and PBA, with the addition of 5% human AB serum (Pel-Freez Biologicals, Rogers, AR) to further increase expression of α7 [35]. The cells were then grown for 24 hours prior to the assay.
(§3) To measure responses to various nicotinic agonists, 100 µl of a fluorescent dye which is sensitive to changes in membrane potential (Molecular Devices) was added to the wells. The dye was prepared according to the manufacturer’s instructions, with the addition of atropine (0.5 µM) to block muscarinic responses. The plates were then incubated at 37°C for one hour prior to the assay. Serial dilutions of agonists were then prepared in Hanks Balanced Salt Solution (HBSS) in V-shaped 96-well plates (Fisher Scientific Co, Pittsburgh, PA). Fluorescent responses were measured in the FLEX Station at 25°C, with an excitation wavelength of 530 nm and an emission wavelength of 565 nm. Various agonists (50 µl) were added after the first 20 seconds and responses were followed for 60–120 seconds.
(§4) Data were graphed using GraphPad Prism software. Non-linear models (sigmoidal dose-response with variable slope or two site competition) were used to fit the concentration response curves. The EC50 and IC50 were calculated from the curves. Kaleidagraph software was used to determine Hill slopes and standard errors of the EC50 and IC50.

α7 AChRs [2] = molecular target: T2, α7 AChRs (Homo sapiens, UniProt P36544); assay: Acute activation, FLEXStation membrane potential dye, α7/RIC-3 cell line; format: cell-based; parameters: expressed in transfected cells; grown in VPA and PBA
T2 sequence (P36544 23-502): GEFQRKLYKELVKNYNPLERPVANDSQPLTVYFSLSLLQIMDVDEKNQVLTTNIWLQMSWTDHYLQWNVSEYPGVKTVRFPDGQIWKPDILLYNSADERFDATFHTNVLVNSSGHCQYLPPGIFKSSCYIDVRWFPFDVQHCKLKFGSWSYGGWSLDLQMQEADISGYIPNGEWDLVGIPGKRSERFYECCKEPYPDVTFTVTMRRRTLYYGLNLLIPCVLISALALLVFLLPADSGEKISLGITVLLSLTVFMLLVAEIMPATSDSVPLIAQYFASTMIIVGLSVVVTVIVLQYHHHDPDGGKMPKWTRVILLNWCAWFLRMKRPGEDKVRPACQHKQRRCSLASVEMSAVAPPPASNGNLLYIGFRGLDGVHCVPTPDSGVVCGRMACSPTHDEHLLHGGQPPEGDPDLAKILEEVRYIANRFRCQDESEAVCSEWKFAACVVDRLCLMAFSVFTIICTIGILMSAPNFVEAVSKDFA
Protocol: as §1, §2, §3, §4

human α4β2 AChRs [3] = molecular target: T3, human α4β2 AChRs (Homo sapiens, UniProt P17787+P43681); assay: Acute activation, FLEXStation membrane potential dye, α4β2 cell line; format: cell-based; conditions: for Agonist type (full or partial): α4β2, mixture of stoichiometries
T3 construct: expressed in transfected cells
T3 sequence (P43681 29-627 limits assumed): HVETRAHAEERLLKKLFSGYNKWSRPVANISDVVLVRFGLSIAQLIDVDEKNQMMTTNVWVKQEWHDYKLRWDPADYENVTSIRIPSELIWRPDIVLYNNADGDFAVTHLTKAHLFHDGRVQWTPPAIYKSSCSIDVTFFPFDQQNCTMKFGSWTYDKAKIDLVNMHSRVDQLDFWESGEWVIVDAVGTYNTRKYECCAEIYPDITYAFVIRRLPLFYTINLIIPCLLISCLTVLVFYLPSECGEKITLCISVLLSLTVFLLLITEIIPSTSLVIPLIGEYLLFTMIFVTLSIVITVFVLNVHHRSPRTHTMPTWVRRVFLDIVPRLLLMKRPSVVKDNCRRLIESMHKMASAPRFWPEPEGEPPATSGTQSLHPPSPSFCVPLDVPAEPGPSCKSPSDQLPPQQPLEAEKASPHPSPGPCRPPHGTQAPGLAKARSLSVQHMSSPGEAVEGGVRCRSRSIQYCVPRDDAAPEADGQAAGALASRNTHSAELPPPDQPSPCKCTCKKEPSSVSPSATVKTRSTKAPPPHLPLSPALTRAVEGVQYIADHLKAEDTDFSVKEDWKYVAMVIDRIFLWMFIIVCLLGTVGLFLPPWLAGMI
T3 sequence (P17787 26-502): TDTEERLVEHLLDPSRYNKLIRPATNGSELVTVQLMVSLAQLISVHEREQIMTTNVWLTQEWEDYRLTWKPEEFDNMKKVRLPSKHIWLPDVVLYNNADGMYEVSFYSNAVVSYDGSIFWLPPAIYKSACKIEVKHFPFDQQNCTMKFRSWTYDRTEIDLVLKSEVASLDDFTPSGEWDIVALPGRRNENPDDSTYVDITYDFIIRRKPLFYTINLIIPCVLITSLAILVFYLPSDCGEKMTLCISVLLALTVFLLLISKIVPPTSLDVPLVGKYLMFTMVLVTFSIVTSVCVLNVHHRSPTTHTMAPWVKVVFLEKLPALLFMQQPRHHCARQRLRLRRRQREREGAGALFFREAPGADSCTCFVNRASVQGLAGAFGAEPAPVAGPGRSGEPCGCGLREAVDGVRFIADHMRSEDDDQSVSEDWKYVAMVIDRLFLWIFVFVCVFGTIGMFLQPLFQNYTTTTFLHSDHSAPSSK
Protocol: as §1, §2, §3, §4

(α4β2)2α4 AChRs = conditions: (α4β2)2α4, concatenated AChRs in Xenopus oocytes; cited from earlier work
human α4β2 AChRs [4] = molecular target: T3, human α4β2 AChRs; assay: Chronic desensitization (16 h agonist, then ACh response) and calculated smoldering activation, α4β2 cell line; format: cell-based; conditions: for Extent of desensitization of α4β2 AChRs to ACh: prolonged exposure, up to high concentrations; for Emax at 1 µM: 1 µM varenicline, read-out: Smoldering activation, % of the maximum response; for AChRs desensitized: varenicline 1 µM
Protocol: (§5) To measure desensitization, plates were prepared as for agonist assays. Sixteen hours prior to the assay, serial dilutions of agonists, prepared in regular growth medium, were added to the plates. One hour before the assay, the membrane potential-sensitive fluorescent dye with 0.5 µM atropine was added to the wells. […] Each data point represents the average of peak values for individual dose response curves from 4–8 wells.
as §4
(§6) Responses for the three different AChRs are shown in Figures 3, 4, 5, 6, along with the dose response curves for activation (the same as shown in Figure 2). The range of concentrations at which both sustained activation and desensitization can occur (“smoldering activation”) was calculated by multiplying the acute response to agonists at each concentration by the fractional response remaining after desensitization.

α7 AChRs [5] = molecular target: T2, α7 AChRs; assay: Chronic desensitization (16 h agonist, then ACh response) and calculated smoldering activation, α7 cell line; format: cell-based; parameters: expressed in transfected cells; grown in VPA and PBA; conditions: for Hill (desensitization) / Intercept of Activation and Desensitization Curves: α7: 10 µM ACh
Protocol: as §5, §4, §6

(α4β2)2β2 AChRs = molecular target: T4, (α4β2)2β2 AChRs (Homo sapiens, UniProt P17787+P43681); conditions: (α4β2)2β2, concatenated AChRs in Xenopus oocytes; cited from earlier work
T4 construct: expressed in transfected cells
T4 sequence (P43681 29-627 limits assumed): as the sequence (P43681 29-627 limits assumed) above
T4 sequence (P17787 26-502): as the sequence (P17787 26-502) above

α3β4 AChRs [6] = molecular target: T1, α3β4 AChRs; assay: Chronic desensitization (16 h agonist, then ACh response) and calculated smoldering activation, α3β4 cell line; format: cell-based; conditions: for Hill (desensitization) / Intercept of Activation and Desensitization Curves: α3β4: 1.0 mM ACh
Protocol: as §5, §4, §6

[7] = cited from earlier work
[8] = cited from earlier work; remark: listed apart in the source
[9] = α4β2, higher sensitivity component or monophasic curve
[10] = α4β2: 3 µM ACh ((α4β2)2β2 stoichiometry), centre of smoldering activation
[11] = α4β2: 3 µM ACh, first component
[12] = α4β2: 100 µM ACh (both stoichiometries)
[13] = α4β2: 100 µM ACh, first component
[14] = α4β2, lower sensitivity component

Structure (SMILES) | Hill (activation) (α3β4 AChRs [1]; α3β4) | Hill (activation) (α7 AChRs [2]; α7) | Agonist type (full or partial) (human α4β2 AChRs [3]) | Hill (activation) (human α4β2 AChRs [3]; [9]) | Extent of desensitization of α4β2 AChRs to ACh (human α4β2 AChRs [4]) | Intercept of Activation and Desensitization Curves (human α4β2 AChRs [4]; [10]) [µM] | Hill (desensitization) (human α4β2 AChRs [4]; [11]) | Intercept of Activation and Desensitization Curves (human α4β2 AChRs [4]; [12]) [µM] | Hill (desensitization) (human α4β2 AChRs [4]; [13]) | Hill (desensitization) (α7 AChRs [5]) | Intercept of Activation and Desensitization Curves (α7 AChRs [5]) [µM] | Hill (desensitization) (α3β4 AChRs [6]) | Intercept of Activation and Desensitization Curves (α3β4 AChRs [6]) [µM] | Hill (activation) (human α4β2 AChRs [3]; [14]) | other results
O=c1cccc2n1C[C@@H]1CNC[C@H]2C1 [Cytisine, cytisine] | 1.3 | 4.3 | partial agonist | 0.9 | fully desensitizing | 0.45 | −1.1 | 0.74 | −1.2 | −1.4 | 2.1 | −0.6 | 4.1 | – | EC50 (α3β4 AChRs [1]): 7500 ± 1100 nM; Agonist type (full or partial) (α3β4 AChRs [1]; α3β4): full agonist; Efficacy (%) (relative to ACh) (α3β4 AChRs [1]; α3β4): 100%; EC50 (α7 AChRs [2]): 2000 ± 60 nM; Agonist type (full or partial) (α7 AChRs [2]; α7): full agonist; Efficacy (%) (relative to ACh) (α7 AChRs [2]; α7): 100%; EC50 (human α4β2 AChRs [3]; Activation EC50, α4β2 cell line, mixed stoichiometries, higher sensitivity component where two-site fit, else monophasic): 5500 ± 800 nM; Efficacy (%) (relative to ACh) (human α4β2 AChRs [3]; α4β2): 34%; Agonist type ((α4β2)2α4 AChRs): partial agonist; IC50 (human α4β2 AChRs [4]; Desensitization IC50, α4β2: 3 µM ACh, overnight (16 h) agonist, first (more sensitive) component): 1 ± 0.5 nM; IC50 (human α4β2 AChRs [4]; Desensitization IC50, α4β2: 3 µM ACh, overnight agonist, second component): 250 ± 100 nM; IC50 (human α4β2 AChRs [4]; Desensitization IC50, α4β2: 100 µM ACh, overnight (16 h) agonist, first (more sensitive) component): 3 ± 0.3 nM; IC50 (human α4β2 AChRs [4]; Desensitization IC50, α4β2: 100 µM ACh, overnight agonist, second component): 20000 nM; Concentration from which the desensitization dose response curve shows a plateau (human α4β2 AChRs [4]; α4β2, assayed with 100 µM ACh): above 10 nM; Hill (desensitization) (human α4β2 AChRs [4]; α4β2: 3 µM ACh, second component): −1.1; Hill (desensitization) (human α4β2 AChRs [4]; α4β2: 100 µM ACh, second component): −0.8; IC50 (α7 AChRs [5]): 4200 ± 740 nM; Agonist type ((α4β2)2β2 AChRs): inactive; IC50 (α3β4 AChRs [6]): 1300 ± 500 nM
CC(=O)OCC[N+](C)(C)C [ACh, acetylcholine] | 1.8 | 2.4 | full agonists | 1.5 | – | – | – | – | – | – | – | – | – | 1.3 | Amplitude of response to saturating concentration (α3β4 AChRs [1]; α3β4, saturating ACh (1.0 mM)): 161,000+/−14,000 relative fluorescence units; Time to maximum response after agonist application (α7 AChRs [2]; α7, saturating ACh): ≤ 5 s; Amplitude of response to saturating concentration (α7 AChRs [2]; α7, saturating ACh (10 µM)): 54,000+/−3000 relative fluorescence units and 54,00+/−3000 relative fluorescence units; Amplitude of response to saturating concentration (human α4β2 AChRs [3]; α4β2, saturating ACh (300 µM)): 167,000+/−18,000 relative fluorescence units
CN1CCC[C@H]1c1cccnc1 [Nicotine, nicotine] | 1.1 | 1.7 | full agonists | 1.8 | – | 0.13 | −1.0 | 1.82 | −1.2 | −3.2 | 1.7 | −0.9 | 8.7 | 2.5 | Concentrations found in the blood of smokers [7]: 58 to 340 nM; Emax at 0.1 µM (human α4β2 AChRs [4]; read-out: Calculated smoldering activation, % of maximum response, (α4β2)2α4 stoichiometry, 0.1 µM nicotine): 18%; Emax at 0.1 µM (human α4β2 AChRs [4]; read-out: Calculated smoldering activation, % of maximum response, (α4β2)2β2 stoichiometry, 0.1 µM nicotine): 6%; Emax at […] (human α4β2 AChRs [4]; read-out: Calculated smoldering response, % of maximum response, (α4β2)2α4 stoichiometry, nicotine concentration of […]): 54%
c1cnc2cc3c(cc2n1)[C@@H]1CNC[C@H]3C1 [Varenicline, varenicline] | 1.4 | 3.5 | partial agonists | 1.1 | fully desensitizing | 0.16 | −0.6 | 0.93 | −1.0 | −2.6 | 0.4 | −1.1 | 2.1 | 1.8 | Emax at 1 µM (human α4β2 AChRs [4]; (α4β2)2α4 AChRs): 23%; AChRs desensitized (human α4β2 AChRs [4]; (α4β2)2α4 AChRs): ~50%; Emax at 1 µM (human α4β2 AChRs [4]; (α4β2)2β2 AChRs): 4.3%; AChRs desensitized (human α4β2 AChRs [4]; (α4β2)2β2 AChRs): > 90%; Peak levels ([8]; after 14 days on standard dose of 1 mg twice daily): 0.48 µM; Peak blood levels ([8]; humans, after a 1 mg dose): 0.1 µM; Levels reached in patients ([8]; patients on therapeutic doses): 400 nM
